Patent US20070219186A1, “Pyrazolo[1,5-A]pyrimidine derivatives and methods of use thereof” (priority 2006, published 2007)
Where two headings read alike, the source gives them in different places.

Target: T1, human B-Raf (Homo sapiens, UniProt P15056)
T1 construct: Flag; GST; made in house; host or cells: Sf9 insect cells (B-Raf); E. coli (MEK1-GST)
Test: B-Raf Kinase to MEK1 ELISA
Type: biochemical
Details: for inhibition at 10 µM: read-out: % Inhib./10 uM
In short: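 Flag/GST-tagged human B-Raf (Sf9, ~20 ng/point) phosphorylates non-active GST-MEK1 (50 nM final) with ATP and MgCl2 in MOPS pH 7.2 buffer, 60 min at RT. Product is captured on anti-GST plates; MEK1 pSer217/221 is read by phospho-antibody plus europium conjugate (DELFIA).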

[1] = median, cpd concentrations from 10 μM to 30 nM in half log dilutions, read-out: Median IC50

T1 sequence (P15056 whole entry): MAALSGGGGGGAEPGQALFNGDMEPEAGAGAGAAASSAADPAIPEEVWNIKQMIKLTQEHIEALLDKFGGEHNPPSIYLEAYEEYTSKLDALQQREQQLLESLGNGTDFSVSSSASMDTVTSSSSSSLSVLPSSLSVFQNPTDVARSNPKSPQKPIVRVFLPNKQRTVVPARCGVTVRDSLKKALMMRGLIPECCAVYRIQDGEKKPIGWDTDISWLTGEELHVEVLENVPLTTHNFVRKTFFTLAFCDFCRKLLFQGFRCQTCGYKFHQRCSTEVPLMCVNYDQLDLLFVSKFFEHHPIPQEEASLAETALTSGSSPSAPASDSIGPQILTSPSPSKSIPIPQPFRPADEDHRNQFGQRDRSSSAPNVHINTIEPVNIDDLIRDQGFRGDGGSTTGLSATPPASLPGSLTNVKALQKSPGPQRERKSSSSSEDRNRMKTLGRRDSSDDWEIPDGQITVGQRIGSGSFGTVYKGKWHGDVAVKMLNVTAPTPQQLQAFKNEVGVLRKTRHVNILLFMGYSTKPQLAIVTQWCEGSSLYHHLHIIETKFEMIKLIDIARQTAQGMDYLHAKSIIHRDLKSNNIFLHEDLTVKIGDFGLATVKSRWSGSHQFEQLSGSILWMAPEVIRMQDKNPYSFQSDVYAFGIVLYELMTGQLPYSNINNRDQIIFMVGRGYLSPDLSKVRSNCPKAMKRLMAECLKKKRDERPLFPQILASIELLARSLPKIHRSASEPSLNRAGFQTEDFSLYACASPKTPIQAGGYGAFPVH

IC50 [1]	inhibition at 10 µM	IC50	SMILES
> 10000 nM	39%	–	O=C(Nc1cccc(-c2ccnc3c(-c4ccc(Cl)cc4)cnn23)c1)c1cccc(C(F)(F)F)c1 [Example 158, N-{3-[3-(4-chlorophenyl)pyrazolo[1,5-a]pyrimidin-7-yl]phenyl}-3-(trifluoromethyl)benzamide]
–	51%	–	Cc1ccc(-c2cnn3c(-c4cccc(NC(=O)c5cccc(C(F)(F)F)c5)c4)ccnc23)cc1 [Example 160, N-{3-[3-(4-methylphenyl)pyrazolo[1,5-a]pyrimidin-7-yl]phenyl}-3-(trifluoromethyl)benzamide]
–	87%	670 nM	Cc1ccc(C(=O)Nc2cccc(-c3ccnc4c(Br)cnn34)c2)cc1C(F)(F)F [Example 161, N-[3-(3-bromopyrazolo[1,5-a]pyrimidin-7-yl)phenyl]-4-methyl-3-(trifluoromethyl)benzamide]
–	75%	2100 nM	COc1ccc(C(=O)Nc2cccc(-c3ccnc4c(Br)cnn34)c2)cc1C(F)(F)F [Example 162, N-[3-(3-bromopyrazolo[1,5-a]pyrimidin-7-yl)phenyl]-4-methoxy-3-(trifluoromethyl)benzamide]
4200 nM	74%	–	O=C(Nc1cccc(-c2ccnc3c(Br)cnn23)c1)c1ccc(F)c(C(F)(F)F)c1 [Example 163, N-[3-(3-bromopyrazolo[1,5-a]pyrimidin-7-yl)phenyl]-4-fluoro-3-(trifluoromethyl)benzamide]
> 10000 nM	58%	–	O=C(Nc1cccc(-c2ccnc3c(Br)cnn23)c1)c1ccc(Cl)c(C(F)(F)F)c1 [Example 164, N-[3-(3-bromopyrazolo[1,5-a]pyrimidin-7-yl)phenyl]-4-chloro-3-(trifluoromethyl)benzamide]
> 10000 nM	64%	–	O=C(Nc1cccc(-c2ccnc3c(Br)cnn23)c1)c1ccc(Cl)c(Cl)c1 [Example 165, N-[3-(3-bromopyrazolo[1,5-a]pyrimidin-7-yl)phenyl]-3,4-dichlorobenzamide]
1330 nM	94%	–	O=C(Nc1cccc(-c2ccnc3c(Br)cnn23)c1)Nc1cccc(C(F)(F)F)c1 [Example 166, N-[3-(3-bromopyrazolo[1,5-a]pyrimidin-7-yl)phenyl]-N′-[3-(trifluoromethyl)phenyl]urea]
4990 nM	59%	–	O=C(Nc1cccc(-c2ccnc3c(Br)cnn23)c1)Nc1ccc(F)c(C(F)(F)F)c1 [Example 167, N-[3-(3-bromopyrazolo[1,5-a]pyrimidin-7-yl)phenyl]-N′-[4-fluoro-3-(trifluoromethyl)phenyl]urea]
2410 nM	58%	–	O=C(Nc1cccc(-c2ccnc3c(Br)cnn23)c1)Nc1ccc(Cl)c(Cl)c1 [Example 168, N-[3-(3-bromopyrazolo[1,5-a]pyrimidin-7-yl)phenyl]-N′-(3,4-dichlorophenyl)urea]
–	96%	70 nM	Cc1ccc(C(=O)Nc2cccc(-c3ccnc4c(-c5cccnc5)cnn34)c2)cc1C(F)(F)F [Example 169, 4-methyl-N-[3-(3-pyridin-3-ylpyrazolo[1,5-a]pyrimidin-7-yl)phenyl]-3-(trifluoromethyl)benzamide]
–	96%	140 nM	COc1ccc(C(=O)Nc2cccc(-c3ccnc4c(-c5cccnc5)cnn34)c2)cc1C(F)(F)F [Example 170, 4-methoxy-N-[3-(3-pyridin-3-ylpyrazolo[1,5-a]pyrimidin-7-yl)phenyl]-3-(trifluoromethyl)benzamide]
380 nM	87%	–	O=C(Nc1cccc(-c2ccnc3c(-c4cccnc4)cnn23)c1)c1ccc(F)c(C(F)(F)F)c1 [Example 171, 4-fluoro-N-[3-(3-pyridin-3-ylpyrazolo[1,5-a]pyrimidin-7-yl)phenyl]-3-(trifluoromethyl)benzamide]
